Literature values in patent US9908851B2, “2-piperidinyl substituted N,3-dihydroxybutanamides” (Duke University, priority 2013, dated 2018).
≈ marks a conversion by molar mass, not a printed value.

Test system: N. gonorrhoeae 35/02 (drug-resistant strain)
Conditions: strain 35/02; resistance profile of the strain

Row | Compound | MIC [µg/mL]
1 | CO/N=C(\C(=O)N[C@@H]1C(=O)N2C(C(=O)O)=C(CSc3nc(=O)c(=O)[nH]n3C)CS[C@H]12)c1csc(N)n1 [ceftriaxone] | 0.12 (≈ 0.216 µM)
2 | penicillin | 6
